Assay results taken from patent US20160030510A1, “METHODS OF TREATING ALZHEIMER'S DISEASE AND OTHER TAUOPATHIES WITH INHIBITORS OF MICROTUBULE AFFINITY REGULATING KINASE” (The Board of Trustees of the Leland Stanford Junior …, priority 2012, published 2016).
Where a SMILES comes first, the peptide text is derived from it. Where no end group is shown, it is not given here.

What was measured:
[1] = test system: PAR-1/MARK-mediated tau phosphorylation; assay: Tau phosphorylation in transfected rat hippocampal neurons (western blot / immunostaining with 12E8 and PHF-1 antibodies); type: cell-based
Protocol: (§1) Robust 12E8 staining (gray) is seen in EGFP-transfected control neurons. Total tau is stained with anti-HA (gray). […] EGFP-transfected neurons served as control. […] Data quantification is shown in (3E) (***P<0.001 in Student's t-test). Scale bar, 10 μm.
(§2) Rat E18 hippocampal neuron primary cultures were prepared as described (Yu et al. (2011) Hum. Mol. Genet. 20:3227-3240, herein incorporated by reference in its entirety). Cultured neurons, grown for 10-days in vitro in 12-well plates, were transfected with 2-3 μg of plasmid per well using a CalPhos Mammalian Transfection Kit (Clontech, San Jose, Calif., USA). Fluorescence immunocytochemistry was performed 3 days after transfection. Preparation and concentration of lentiviral particles were performed as described before (Yu et al., supra). Viral transfection of hippocampal neurons was carried out at 10 days after in vitro culture. The next day, the culture medium was replaced with 50% fresh medium and 50% conditioned medium.
EGFP-tagged PSD-95-WT in the FHUGW lentivirus vector was described before (Xu et al. (2008) Neuron 57:248-262). The S561A mutation was introduced by site-directed mutagenesis. Tau S2A mutations were introduced as described before (Nishimura et al. Cell, 116:671-682), and subcloned into FHUGW with a C-terminal HA tag. EGFP- and HA-tagged human MARK4 constructs were obtained from Dr. Gerard Drewes. MKI cDNA was obtained from Dr. C. […]
(§3) Chicken anti-EGFP (1:4000) and rabbit anti-HA (1:3000) antibodies were purchased from Abcam (Cambridge, Mass., USA); mouse anti-Myc (1:1500, 4A6) and mouse anti-PSD-95 (1:300) from Millipore (Billerica, Mass., USA); rabbit anti-GluR1 (1:200) from Calbiochem (San Diego, Calif., USA) and rabbit anti-Synapsin I (1:1000) from Sigma (St Louis, Mo., USA). […] Dendritic spine number and clusters of PSD-95, GluR1 or Synapsin I were manually counted as the number along a 10 μm length of dendrite and presented as mean±SEM. […] Between 15 and 30 dendritic processes were selected for quantification. Data were analyzed while blind to the conditions.

all MARKs = details: Nesic et al. (2010); cited from earlier work
[2] = test system: AMP-activated kinase (AMPK); assay: AMPK kinase activity in neurons detected with phospho-acetyl-CoA carboxylase (Ser79) antibody; type: cell-based, rat; details: specificity control; pACC antibody, FIG. 3C
rat hippocampal neurons [3] = assay: MARK4 overexpression-induced synaptic and spine toxicity in hippocampal neurons; type: cell-based
Protocol: as §1, §2
Chicken anti-EGFP (1:4000) and rabbit anti-HA (1:3000) antibodies were purchased from Abcam (Cambridge, Mass., USA); mouse anti-Myc (1:1500, 4A6) and mouse anti-PSD-95 (1:300) from Millipore (Billerica, Mass., USA); rabbit anti-GluR1 (1:200) from Calbiochem (San Diego, Calif., USA) and rabbit anti-Synapsin I (1:1000) from Sigma (St Louis, Mo., USA). Immunofluorescence analysis was done essentially as described before (Yu et al., supra). Confocal images were obtained using a Leica TCS SP5 confocal microscope or Zeiss inverted LSM510 confocal microscope (Carl Zeiss, Inc.) with 63× NA 1.4 objectives. Processed confocal images were used to make 2D projections. Dendritic spine number and clusters of PSD-95, GluR1 or Synapsin I were manually counted as the number along a 10 μm length of dendrite and presented as mean±SEM. Each experiment was done at least three times and six to nine neurons were randomly selected for analysis each time. Between 15 and 30 dendritic processes were selected for quantification. Data were analyzed while blind to the conditions.

rat hippocampal neurons [4] = assay: Aβ oligomer-induced synaptic and dendritic spine defects in hippocampal neurons (morphology); type: cell-based; details: 5 μM Aβ oligomer-treated neurons
Protocol: FIGS. 4A-4C show the effects of MKI-EGFP on Aβ-induced loss of PSD-95 (FIG. 4A) and GluR1 (FIG. 4B) clusters and spine numbers. Neurons transfected with MKI-EGFP or EGFP were treated with Aβ oligomer or mock-treated with solvent as control. The cytoplasmic GFP signals allowed detection of dendritic spines, and PSD-95 or GluR1 clusters were detected by immunostaining. Quantification of data is shown in (FIG. 4C) (***P<0.001 in Student's t-test). […] Summary graphs from four to six culture sets plotting normalized mEPSC frequency and mEPSC amplitude are shown beneath the traces. Scale bar, 5 μm.
as §2
Commercial Aβ-42 peptide was purchased from rPeptide (Bogart, Ga., USA). […]
as §3

rat hippocampal neurons [5] = type: cell-based; details: FIG. 4D
Aβ-induced spine loss = details: Zempel et al. (2010); cited from earlier work
Human MARK4 = target: T1, Human MARK4 (Homo sapiens, UniProt Q96L34); assay: In vitro kinase assay of MARK4 phosphorylating tau (Western blot); type: biochemical; details: human MARK4 and tau affinity-purified from HEK293 cells, FIG. 7
T1 construct: made in house; host or cells: HEK293 cells
T1 sequence (Q96L34 1-752): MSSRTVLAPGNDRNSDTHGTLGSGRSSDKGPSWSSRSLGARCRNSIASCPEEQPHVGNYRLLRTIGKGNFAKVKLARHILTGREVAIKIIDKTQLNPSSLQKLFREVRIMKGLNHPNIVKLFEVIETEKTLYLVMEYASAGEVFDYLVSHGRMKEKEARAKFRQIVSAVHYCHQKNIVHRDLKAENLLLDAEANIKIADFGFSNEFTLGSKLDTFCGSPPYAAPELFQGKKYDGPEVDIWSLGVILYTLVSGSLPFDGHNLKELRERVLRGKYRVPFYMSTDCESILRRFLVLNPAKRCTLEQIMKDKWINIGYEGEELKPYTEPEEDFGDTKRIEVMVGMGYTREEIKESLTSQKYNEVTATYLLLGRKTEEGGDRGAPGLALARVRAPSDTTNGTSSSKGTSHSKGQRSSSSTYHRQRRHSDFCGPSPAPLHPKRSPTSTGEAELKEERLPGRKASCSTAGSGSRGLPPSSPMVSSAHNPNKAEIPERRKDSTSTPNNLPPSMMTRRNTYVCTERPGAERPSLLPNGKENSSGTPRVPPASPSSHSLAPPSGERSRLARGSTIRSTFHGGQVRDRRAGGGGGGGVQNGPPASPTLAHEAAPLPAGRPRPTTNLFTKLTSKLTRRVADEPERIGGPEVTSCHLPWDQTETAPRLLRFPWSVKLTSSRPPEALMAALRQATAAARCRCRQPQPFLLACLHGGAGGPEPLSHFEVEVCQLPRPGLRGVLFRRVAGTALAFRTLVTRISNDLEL
Text: Both human MARK4 and tau proteins were expressed in HEK293 cells and affinity-purified by immunoprecipitation. After in vitro kinase reaction in the presence or absence of the peptides, the reaction mixtures were separated on SDS-PAGE to separate the proteins, and the levels of total tau and phospho-tau generated by MARK4 were detected by Western blot analysis. The TAT peptide was used as a negative control. Note the inhibition of MARK4-mediated tau phosphorylation by both TAT-MKI and MKI-TAT.
We next tested the ability of the TAT-MKI and MKI-TAT fusions to inhibit the activity of MARK4 kinase in phosphorylating the tau protein (FIG. 7). Human MARK4 and tau proteins were expressed in HEK293 cells and affinity-purified by immunoprecipitation. In vitro kinase reactions were performed in the presence or absence of the TAT-MKI and MKI-TAT fusion peptides and the levels of total tau and phospho-tau generated by MARK4 were detected by Western blot analysis. The TAT peptide was used as a negative control. Both the TAT-MKI and MKI-TAT fusion peptides inhibited MARK4-mediated tau phosphorylation in vitro.

**Q.** With “MKI: peptide inhibitor (SEQ ID NO:1) derived from the CagA protein of Helicobacter pylori, binds substrate-binding sites of all MARKs (FPLKRHDKVDDLSK)” as the compound, how does the “Phosphorylation of tau at the PHF-1 site” value ([1]; rat hippocampal neurons, western blot, FIG. 3A) read?
**A.** The value was “reduced”.

**Q.** And the “binding to the substrate-binding sites of all MARKs” value (all MARKs)?
**A.** Its value is “specifically bind with high affinity”.

**Q.** For “MKI-EGFP: MKI cDNA subcloned into FHUGW lentivirus vector with a C-terminal EGFP tag, expressed in rat hippocampal neurons (FPLKRHDKVDDLSK; not fully specified (C-terminus))”, which “MARK4-mediated phosphorylation of transfected human tau at the 12E8 sites” value ([1]; HA-tagged h-tau-WT in rat hippocampal neurons, immunostaining, FIG. 3B) is on record?
**A.** The value was “effectively attenuated”.

**Q.** And the “MARK4-mediated phosphorylation of endogenous tau at the 12E8 sites” value ([1]; expressed in rat hippocampal neurons, western blot, FIG. 3A)?
**A.** Its value is “effectively attenuated”.

**Q.** And the “phosphorylation of acetyl-CoA carboxylase (ACC) by AMP-activated kinase (AMPK)” value [2]?
**A.** Its value is “did not affect”.

**Q.** What about the “MARK4 overexpression-induced reduction of GluR1 puncta density” value (rat hippocampal neurons [3]; FIG. 3E) of the same compound?
**A.** Its value is “effectively blocked”.

**Q.** And the “MARK4 overexpression-induced reduction of PSD-95 puncta density” value (rat hippocampal neurons [3]; FIG. 3E)?
**A.** Its value is “effectively blocked”.

**Q.** What about the “MARK4 overexpression-induced spine loss” value (rat hippocampal neurons [3]; co-expression in rat hippocampal neurons, FIGS. 3D and 3E) of the same compound?
**A.** The value was “effectively blocked”.

**Q.** And the “Aβ-caused reduction in the density of PSD-95 puncta” value (rat hippocampal neurons [4]; FIGS. 4A and 4C)?
**A.** The value was “effectively blocked”.

**Q.** And the “Aβ-caused loss of dendritic spines” value (rat hippocampal neurons [4]; FIGS. 4A-4C)?
**A.** Its value is “effectively blocked”.

**Q.** And the “Aβ-caused reduction in the density of GluR1 puncta” value (rat hippocampal neurons [4]; FIGS. 4B and 4C)?
**A.** Its value is “effectively blocked”.

**Q.** What about the “reduction of mEPSC frequency caused by Aβ” value (rat hippocampal neurons [5]; Aβ-treated neurons, held at −70 mV) of the same compound?
**A.** The value was “effectively rescued”.

**Q.** And the “mEPSC amplitude in neurons expressing inhibitor alone” value (rat hippocampal neurons [5]; no Aβ (mock-treated))?
**A.** The value was “not amplitude”.

**Q.** And the “mEPSC frequency in neurons expressing inhibitor alone” value (rat hippocampal neurons [5]; no Aβ (mock-treated))?
**A.** The value was “reduced mEPSC frequency”.

**Q.** Which Aβ-induced spine loss (Aβ-induced spine loss) does the source give for `CC(=O)O[C@H]1C(=O)[C@@]2(C)[C@H]([C@H](OC(=O)c3ccccc3)[C@]3(O)C[C@H](OC(=O)[C@H](O)[C@@H](NC(=O)c4ccccc4)c4ccccc4)C(C)=C1C3(C)C)[C@]1(OC(C)=O)CO[C@@H]1C[C@@H]2O` [taxol] here?
**A.** The Aβ-induced spine loss was “preventable”.

**Q.** With `CC(=O)N[C@@H](Cc1ccc(O)cc1)C(=O)NCC(=O)N[C@@H](CCCNC(=N)N)C(=O)N[C@@H](CCCCN)C(=O)N[C@@H](CCCCN)C(=O)N[C@@H](CCCNC(=N)N)C(=O)N[C@@H](CCCNC(=N)N)C(=O)N[C@@H](CCC(N)=O)C(=O)N[C@@H](CCCNC(=N)N)C(=O)N[C@@H](CCCNC(=N)N)C(=O)N[C@@H](CCCNC(=N)N)C(=O)NCC(=O)NCC(=O)N[C@@H](Cc1ccccc1)C(=O)N1CCC[C@H]1C(=O)N[C@@H](CC(C)C)C(=O)N[C@@H](CCCCN)C(=O)N[C@@H](CCCNC(=N)N)C(=O)N[C@@H](Cc1c[nH]cn1)C(=O)N[C@@H](CC(=O)O)C(=O)NCC(=O)N[C@H](C(=O)N[C@@H](CC(=O)O)C(=O)N[C@@H](CC(=O)O)C(=O)N[C@@H](CC(C)C)C(=O)N[C@@H](CO)C(=O)N[C@@H](CCCCN)C(=O)N[C@H](C(=O)NCC(N)=O)C(C)C)C(C)C` [TAT-MKI] (Ac-YGRKKRRQRRRGGFPLKRHDGVDDLSKVG-NH2) as the compound, how does the “MARK4-mediated tau phosphorylation in vitro” value (Human MARK4) read?
**A.** The value was “inhibited”.
